From patent publication EP4631938A1, “NITROGEN-CONTAINING HETEROCYCLE WITH SEROTONIN RECEPTOR-BINDING ACTIVITY AND CARBOCYCLIC DERIVATIVE” (Shionogi & Co., Ltd, priority 2022, dated 2024)
pKi: −log10 of the molar value. Where two headings read alike, the source gives them in different places.

Legend:
[1] = target: T1, human recombinant 5-HT2C receptor (Homo sapiens, UniProt P28335); test: Test Example 2-2: 5-HT2C receptor binding inhibition test ([3H]-Mesulergine; non-specific ligand Ketanserin); conditions: non-specific binding with 500 µmol/L Ketanserin, 37°C, 2 hours
T1 construct: expressed in transfected cells; host or cells: Jump-In HEK cells (membrane preparation)
T1 sequence (P28335 33-458): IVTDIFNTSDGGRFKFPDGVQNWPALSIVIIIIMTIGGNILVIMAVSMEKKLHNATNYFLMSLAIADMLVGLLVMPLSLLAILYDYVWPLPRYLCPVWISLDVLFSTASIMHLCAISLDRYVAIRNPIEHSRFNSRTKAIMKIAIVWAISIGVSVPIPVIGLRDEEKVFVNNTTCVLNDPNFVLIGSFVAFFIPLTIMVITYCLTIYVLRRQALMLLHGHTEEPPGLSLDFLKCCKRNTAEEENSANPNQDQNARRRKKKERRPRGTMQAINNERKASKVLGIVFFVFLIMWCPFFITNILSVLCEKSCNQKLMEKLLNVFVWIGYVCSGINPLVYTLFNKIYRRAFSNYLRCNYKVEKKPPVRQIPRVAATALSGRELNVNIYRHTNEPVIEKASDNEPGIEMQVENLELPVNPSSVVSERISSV
Procedure: The Kd value is calculated when the lot of the cell membrane is changed. 1 mmol/L non-specific binding calculating compound dissolved in DMSO or DMSO is previously dispensed to the microplate by 0.5 µL, and the cell membrane is diluted with an Assay buffer. The radioactive ligand solution is diluted step by step, and counts are checked with a liquid scintillator. The Assay buffer containing diluted cell membranes is dispensed by 50 µL/well into the microplate. The radioactive ligand solution is then dispensed by 50 µL/well into the microplate and the plate is sealed. The microplate is allowed to stand at 37°C for 2 hours. During this time, 50 mmol/L Tris-HCl (pH 7.4) is dispensed by 50 µL/well into the UniFilter plate and allowed to stand at 4°C for 1 hour or longer. Thereafter, filtration is performed with a Cell Harvester (PerkinElmer). The radioactive ligand solution is dispensed by 10 µL/well into empty wells of the UniFilter plate. After drying the UniFilter plate at room temperature, MicroScinti20 is dispensed by 50 µL/well into the UniFilter plate, and the plate is sealed. UniFilter plate is allowed to stand at room temperature overnight. The radioactivity of [^3H]-Mesulergine bound to the 5-HT2C receptor is measured using Microbeta2 (PerkinElmer) at a measurement time of 1 min/well. The Saturation curve is drawn from the measured value, and the Kd value is calculated from the slope of the Scatchard Plot.
A compound solution dissolved in DMSO is dispensed to a microplate by 0.5 µL, and a cell membrane and a hot ligand are each diluted with an Assay buffer. The Assay buffer containing diluted cell membrane is then dispensed by 50 µL/well into the microplate. The radioactive ligand solution is then dispensed by 50 µL/well into the microplate and the plate is sealed. The microplate is then allowed to stand at 37°C for 2 hours. During this time, 50 mmol/L Tris-HCl (pH 7.4) is dispensed by 50 µL/well into the UniFilter plate and allowed to stand at 4°C for 1 hour or longer. Thereafter, filtration is performed with a Cell Harvester (PerkinElmer). After drying the UniFilter plate at room temperature, MicroScinti20 is dispensed by 50 µL/well into the UniFilter plate, and the plate is sealed. UniFilter plate is allowed to stand at room temperature overnight. The radioactivity of [^3H]-Mesulergine bound to the 5-HT2C receptor is measured using Microbeta2 (PerkinElmer) at a measurement time of 1 min/well. Non-specific binding is calculated from the radioactivity of [^3H]-Mesulergine in the presence of 500 µmol/L Ketanserin of unlabeled ligand, and total binding is calculated from the radioactivity of [^3H]-Mesulergine in the absence of the compound of the present invention (Vehicle). Finally, the Ki value is calculated from the dose-response curve.
(The binding activity of the compound according to the present invention is calculated from the following binding inhibition rate (%).) Inhibition rate (%) = [1−(c−a)/(b−a)] × 100 [formula] • a; average cpm of non-specific binding • b; average cpm of total binding • c; cpm in the presence of the test compound
The compounds of the present invention were tested essentially as described above.

[2] = target: T2, human recombinant 5-HT2A receptor (Homo sapiens, UniProt P28223); test: Test Example 1-2: 5-HT2A receptor binding inhibition test ([3H]-Ketanserin; non-specific ligand Ketanserin)
T2 construct: expressed in transfected cells; host or cells: Jump-In HEK cells (membrane preparation)
Procedure, shortened: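 Ki values were derived from dose-response inhibition of [3H]-ketanserin binding; nonspecific binding was set with 500 µmol/L ketanserin, and Kd was set for each membrane lot from Scatchard saturation plots. Incubation lasted 1.5 h at room temperature (25 °C). Bound radioligand was harvested on Tris-HCl (pH 7.4)-presoaked filters and counted.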

[3] = [3H]-Ketanserin, non-specific binding with 500 µmol/L Ketanserin, room temperature (25°C), 1.5 hours, read-out: h 5-HT2A Ki

T2 sequence (P28223 whole entry): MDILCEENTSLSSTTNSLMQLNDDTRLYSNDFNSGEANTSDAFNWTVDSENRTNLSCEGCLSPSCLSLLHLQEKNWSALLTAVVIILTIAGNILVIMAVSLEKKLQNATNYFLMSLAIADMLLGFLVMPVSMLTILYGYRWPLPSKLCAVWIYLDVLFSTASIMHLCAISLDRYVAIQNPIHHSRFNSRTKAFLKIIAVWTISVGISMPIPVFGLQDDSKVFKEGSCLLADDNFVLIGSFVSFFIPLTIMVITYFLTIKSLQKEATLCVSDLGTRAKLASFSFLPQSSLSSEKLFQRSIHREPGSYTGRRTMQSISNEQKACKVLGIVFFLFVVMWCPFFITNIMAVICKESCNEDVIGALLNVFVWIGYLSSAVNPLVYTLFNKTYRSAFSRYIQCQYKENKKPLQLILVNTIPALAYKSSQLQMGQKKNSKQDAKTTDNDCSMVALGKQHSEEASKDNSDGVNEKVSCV

pKi [1] | pKi [2, 3] | Structure (SMILES) | pKi [2]
8.94 | 9.54 | CCn1ncc(C)c1-c1cc(Nc2ncc(C(F)(F)F)cc2F)ccc1OCCO [Compound I-068] | –
9.44 | 9.43 | Cn1ncc(Br)c1-c1cc(Nc2nc3cc(Cl)ccc3s2)ccc1OCCO [Compound I-069] | –
9.67 | 9.52 | Cn1ncc(Br)c1-c1cc(Nc2nc3ccc(F)cc3s2)ccc1OCCO [Compound I-070] | –
8.71 | 9.42 | Cn1ncc(Br)c1-c1cc(Nc2nc3c(Cl)cccc3s2)ccc1OCCO [Compound I-071] | –
8.33 | 9.39 | Cn1ncc(C#N)c1-c1cc(Nc2ncc(C(F)(F)F)cc2F)ncc1OCCO [Compound I-072] | –
9.07 | 9.63 | Cc1cnn(C2CC2)c1-c1cc(Nc2ncc(C(F)(F)F)cc2F)ccc1OCCO [Compound I-074] | –
9.03 | 9.83 | Cc1cnn(C)c1-c1cc(Nc2ccc(C(F)(F)F)cn2)ccc1OCCO [Compound I-075] | –
8.52 | 9.68 | Cn1ncc(Br)c1-c1cc(Nc2nc3cnccc3s2)ccc1OCCO [Compound I-076] | –
8.49 | 9.64 | Cn1ncc(Br)c1-c1cc(Nc2nc3cc(F)ccc3[nH]2)ccc1OCCO [Compound I-077] | –
8.96 | 9.58 | Cn1ncc(Br)c1-c1cc(Nc2nc3cc(Cl)ccc3[nH]2)ccc1OCCO [Compound I-078] | –
9.20 | 9.53 | COc1cnc(Nc2ccc(OCCO)c(-c3c(Br)cnn3C)c2)c(F)c1 [Compound I-079] | –
8.56 | 9.35 | Cn1ncc(Br)c1-c1cc(Nc2ccc(C(C)(F)F)cn2)ccc1OCCO [Compound I-080] | –
9.34 | 9.69 | Cn1ncc(Br)c1-c1cc(Nc2ccc(C(F)(F)F)cn2)cnc1OCCO [Compound I-081] | –
8.53 | 9.54 | Cc1cnn(C)c1-c1cc(Nc2ncc(C(F)(F)F)cc2F)cnc1OCCO [Compound I-083] | –
9.53 | 9.35 | Cn1ncc(Br)c1-c1cc(Nc2nc3cc(Br)ccc3n2C)ccc1OCCO [Compound I-084] | –
9.26 | 9.72 | COc1ccc2nc(Nc3ccc(OCCO)c(-c4c(Br)cnn4C)c3)sc2c1 [Compound I-085] | –
8.05 | 9.69 | Cn1ncc(F)c1-c1cc(Nc2ncc(Cl)cc2F)ccc1OCCO [Compound I-086] | –
8.20 | 9.62 | Cn1ncc(C#N)c1-c1cc(Nc2ncc(C(F)(F)F)cc2F)cnc1OCCO [Compound I-087] | –
8.08 | 9.57 | Cc1cnn(C)c1-c1cc(Nc2ncc(Cl)cc2F)ncc1OCCO [Compound I-088] | –
8.52 | 9.39 | Cn1ncc(Br)c1-c1cc(Nc2ncc(F)cc2F)ncc1OCCO [Compound I-089] | –
9.24 | 9.69 | Cn1ncc(Br)c1-c1cc(Nc2ccc(Cl)cn2)ccc1OCCO [Compound I-090] | –
8.05 | 9.71 | Cn1ncc(Br)c1-c1cc(Nc2ccc(C(F)F)cn2)ccc1OCCO [Compound I-091] | –
8.56 | 9.56 | Cn1ncc(Br)c1-c1cc(Nc2nc3ccc(F)cc3n2C)ccc1OCCO [Compound I-092] | –
9.49 | 9.55 | Cn1ncc(Br)c1-c1cc(Nc2ccc(C3CCC3)cn2)ccc1OCCO [Compound I-093] | –

pKi [1] | pKi [2, 3] | Structure (SMILES) | pKi [2]
9.69 | 9.59 | Cn1ncc(Br)c1-c1cc(Nc2ccc(CC(F)(F)F)cn2)ccc1OCCO [Compound I-094] | –
9.12 | 9.43 | Cn1cnc(Cl)c1-c1cc(Nc2ncc(C(F)(F)F)cc2F)ccc1OCCO [Compound I-095] | –
8.78 | 9.47 | Cn1cnc(Br)c1-c1cc(Nc2ncc(Cl)cc2F)ccc1OCCO [Compound I-096] | –
8.87 | 9.29 | Cc1nc(C)c(-c2cc(Nc3ncc(C(F)(F)F)cc3F)ccc2OCCO)c(C)n1 [Compound I-097] | –
8.50 | 9.25 | Cc1nc(C)c(-c2cc(Nc3ncc(Cl)cc3F)ccc2OCCO)c(C)n1 [Compound I-098] | –
8.15 | 9.65 | Cn1ncc(C#N)c1-c1cc(Nc2ccc(C(F)(F)F)cn2)ccc1OCCO [Compound I-099] | –
8.17 | 9.57 | Cc1ncnc(C)c1-c1cc(Nc2ccc(C(F)(F)F)cn2)ccc1OCCO [Compound I-100] | –
8.51 | 9.30 | Cn1ncc(Br)c1-c1cc(Nc2nc3cc(F)ccc3n2C)ccc1OCCO [Compound I-101] | –
8.14 | 9.58 | Cn1ncc(C#N)c1-c1cc(Nc2ccc(Cl)cn2)ccc1OCCO [Compound I-102] | –
8.04 | 9.45 | Cc1ncnc(C)c1-c1cc(Nc2ccc(Cl)cn2)ccc1OCCO [Compound I-103] | –
8.21 | 9.41 | Cn1ncc(Br)c1-c1cc(Nc2nc(C3CC3)ns2)ccc1OCCO [Compound I-104] | –
9.22 | 9.50 | Cn1ncc(Br)c1-c1cc(Nc2ncc(C(F)(F)F)cn2)ccc1OCCO [Compound I-105] | –
8.14 | 9.39 | Cn1cnc(F)c1-c1cc(Nc2ncc(C(F)(F)F)cc2F)ccc1OCCO [Compound I-106] | –
7.00 | 8.78 | Cc1cc(OCCO)c(-c2c(C#N)cnn2C)cc1Nc1ncc(C(F)(F)F)cc1F [Compound I-107] | –
7.76 | 9.43 | Cn1ncc(C#N)c1-c1cc(Nc2ncc(C(F)(F)F)cc2F)cc(F)c1OCCO [Compound I-110] | –
7.62 | 8.53 | Cn1ncc(Br)c1-c1cc(Nc2nccc3cccnc23)ccc1OCCO [Compound I-111] | –
7.59 | 9.56 | Cn1ncc(Br)c1-c1cc(Nc2nccc3ccccc23)ccc1OCCO [Compound I-112] | –
8.51 | 9.53 | Cn1ncc(Br)c1-c1cc(Nc2ncc(Cl)c3ccccc23)ccc1OCCO [Compound I-113] | –
8.33 | 8.81 | Cn1ncc(Br)c1-c1cc(Nc2nccn3c(Br)cnc23)ccc1OCCO [Compound I-114] | –
9.09 | 9.58 | Cn1ncc(Cl)c1-c1cc(Nc2ncc(C(F)(F)F)cc2F)ncc1OCCO [Compound I-115] | –
9.13 | 9.49 | Cn1ncc(Br)c1-c1cc(Nc2ccc(Cl)cn2)cnc1OCCO [Compound I-116] | –
9.52 | 9.62 | Cn1ncc(Br)c1-c1cc(Nc2ncc(Cl)cc2F)cnc1OCCO [Compound I-117] | –
9.22 | 9.58 | Cn1ncc(Br)c1-c1cc(Nc2nc3ccccc3s2)cnc1OCCO [Compound I-118] | –
8.41 | 9.04 | Cn1ncc(Br)c1-c1cc(Nc2ncc(C3CC3)cn2)ccc1OCCO [Compound I-120] | –

Structure (SMILES) | pKi [1] | pKi [2, 3] | pKi [2]
Cn1ncc(Br)c1-c1nc(Nc2ccc(C(F)(F)F)cn2)ccc1OCCO [Compound I-073] | 9.03 | – | 9.74
Cn1ncc(C#N)c1-c1cc(Nc2ncc(C(F)(F)F)cc2F)c(Cl)cc1OCCO [Compound I-109] | 7.81 | – | 9.22
